Earlier results as cited in patent US4795743A, “2'-deamino-2'-hydroxyistamycin Bo derivatives of low toxicity” (Zaidan Hojin Biseibutsu Kagaku Kenkyu Kai, priority 1986, dated 1989).

System: resistant bacteria, Pseudomonas aeruginosa, resistant strains of gram-negative and gram-positive bacteria
Conditions: background, earlier filings; cited from earlier work

## CNCC1CCC(N)C(OC2C(N)CC(O)C(N(C)C(=O)CN)C2O)O1 (stereo not shown) [3-O-demethylistamycin B]
  antibacterial activity: active against resistant bacteria, Pseudomonas aeruginosa and also against a variety of resistant strains of gram-negative and gram-positive bacteria
